Results from patent US20200016062A1, “TERMINALIA FERDINANDIANA LEAF EXTRACT AND PRODUCTS CONTAINING EXTRACT OF TERMINALIA FERDINANDIANA LEAF” (RISING PHOENIX INDUSTRIES PTY LTD, priority 2016, published 2020).

System: C. jeikeium
Assay: modified disc diffusion assay, C. jeikeium
Type: cell-based, Corynebacterium jeikeium
Details: 10 μL extract per disc; vancomycin 5 μg disc; aerobic, 37° C., 24 hours
Description: Evaluation of antibacterial activity screening of the T. ferdinandiana fruit and leaf extracts was assessed using a modified disc diffusion assay.
100 μL of each individual bacteria (C. jeikeium, B. linens, P. acnes and S. epidermidis) was grown separately in 20 mL of the appropriate broth until an approximate count of 10^8 cells/mL was reached.
A volume of 100 μL of each bacterial suspension was spread onto agar plates and the extracts tested for antibacterial activity using 5 mm sterilised filter paper discs.
C. jeikeium cultures were spread onto nutrient agar plates supplemented with 300 μL Tween 80/L of agar.
Discs were infused with 10 μL of the individual extracts, allowed to dry and placed onto inoculated plates. The plates were left to stand at 4° C. for 2 hours before incubation.
Plates inoculated with B. linens, S. epidermidis or C. jeikeium cultures were incubated aerobically at 37° C. for 24 hours.
The diameters of the inhibition zones were measured to the closest whole millimetre. Each assay was completed in at least triplicate. […]
The ability of T. ferdinandiana leaf and fruit extracts to inhibit the growth of bacterial species under test associated with the production of body and foot odours were assessed. […]

## CN[C@H](CC(C)C)C(=O)N[C@H]1C(=O)N[C@@H](CC(N)=O)C(=O)N[C@H]2C(=O)N[C@H]3C(=O)N[C@H](C(=O)N[C@H](C(=O)O)c4cc(O)cc(O)c4-c4cc3ccc4O)[C@H](O)c3ccc(c(Cl)c3)Oc3cc2cc(c3O[C@@H]2O[C@H](CO)[C@@H](O)[C@H](O)[C@H]2O[C@H]2C[C@](C)(N)[C@H](O)[C@H](C)O2)Oc2ccc(cc2Cl)[C@H]1O [vancomycin]
  growth inhibitory activity against C. jeikeium (zones of inhibition): good inhibitor
